Data from paper PMC4457528, “Identification of Novel Small Molecule Inhibitors of Oncogenic RET Kinase” (PLoS ONE, 2015).

Key:
Assay in all cases: KinomeScan kinase panel, single concentration 10 µM
Type in all cases: binding
KinomeScan kinase panel [1] = molecular target: T1, KinomeScan kinase panel (Homo sapiens, UniProt P48729); settings: CSNK1A1, 10 µM; read-out: score (%)
T1 construct: purchased DiscoveRx (KinomeScan)

KinomeScan kinase panel [2] = molecular target: T2, KinomeScan kinase panel (Homo sapiens, UniProt Q96BR1); settings: kinase SGK3; 10 µM; read-out: score (%)
T2 construct: purchased DiscoveRx (KinomeScan)

KinomeScan kinase panel [3] = molecular target: T3, KinomeScan kinase panel (Homo sapiens, UniProt Q9UL54); settings: kinase TAOK2; 10 µM; read-out: score (%)
T3 construct: purchased DiscoveRx (KinomeScan)
T3 sequence (Q9UL54 whole entry): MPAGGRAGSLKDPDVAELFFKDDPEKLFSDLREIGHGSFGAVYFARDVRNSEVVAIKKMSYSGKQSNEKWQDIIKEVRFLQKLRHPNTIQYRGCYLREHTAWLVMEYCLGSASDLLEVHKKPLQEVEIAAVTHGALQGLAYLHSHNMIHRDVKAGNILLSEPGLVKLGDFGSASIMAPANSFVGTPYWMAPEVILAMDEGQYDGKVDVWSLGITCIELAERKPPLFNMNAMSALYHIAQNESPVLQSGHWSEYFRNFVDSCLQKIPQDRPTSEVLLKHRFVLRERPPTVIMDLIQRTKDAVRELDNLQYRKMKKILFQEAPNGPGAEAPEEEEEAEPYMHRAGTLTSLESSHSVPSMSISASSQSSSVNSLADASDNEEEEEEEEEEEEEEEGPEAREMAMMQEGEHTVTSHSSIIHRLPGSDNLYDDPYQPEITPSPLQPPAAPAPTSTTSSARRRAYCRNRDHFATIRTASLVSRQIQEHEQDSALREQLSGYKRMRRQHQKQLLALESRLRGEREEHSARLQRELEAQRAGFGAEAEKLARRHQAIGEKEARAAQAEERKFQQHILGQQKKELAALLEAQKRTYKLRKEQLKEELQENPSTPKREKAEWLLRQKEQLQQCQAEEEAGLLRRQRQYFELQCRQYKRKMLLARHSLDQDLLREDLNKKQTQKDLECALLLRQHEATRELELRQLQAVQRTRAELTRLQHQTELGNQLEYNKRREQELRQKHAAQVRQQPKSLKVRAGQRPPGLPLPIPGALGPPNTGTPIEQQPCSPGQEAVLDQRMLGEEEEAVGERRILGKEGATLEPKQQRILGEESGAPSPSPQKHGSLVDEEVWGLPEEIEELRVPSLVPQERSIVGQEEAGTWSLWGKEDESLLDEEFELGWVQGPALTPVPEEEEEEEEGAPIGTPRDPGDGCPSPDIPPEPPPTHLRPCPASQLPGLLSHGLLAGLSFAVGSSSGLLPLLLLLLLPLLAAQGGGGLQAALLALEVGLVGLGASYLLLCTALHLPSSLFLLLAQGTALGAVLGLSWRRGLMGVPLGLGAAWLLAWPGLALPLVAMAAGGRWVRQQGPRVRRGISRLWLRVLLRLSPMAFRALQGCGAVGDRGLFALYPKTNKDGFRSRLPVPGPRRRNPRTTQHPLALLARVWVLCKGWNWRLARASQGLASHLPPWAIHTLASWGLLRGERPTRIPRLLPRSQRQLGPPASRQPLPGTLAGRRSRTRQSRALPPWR

T2 sequence (Q96BR1 whole entry): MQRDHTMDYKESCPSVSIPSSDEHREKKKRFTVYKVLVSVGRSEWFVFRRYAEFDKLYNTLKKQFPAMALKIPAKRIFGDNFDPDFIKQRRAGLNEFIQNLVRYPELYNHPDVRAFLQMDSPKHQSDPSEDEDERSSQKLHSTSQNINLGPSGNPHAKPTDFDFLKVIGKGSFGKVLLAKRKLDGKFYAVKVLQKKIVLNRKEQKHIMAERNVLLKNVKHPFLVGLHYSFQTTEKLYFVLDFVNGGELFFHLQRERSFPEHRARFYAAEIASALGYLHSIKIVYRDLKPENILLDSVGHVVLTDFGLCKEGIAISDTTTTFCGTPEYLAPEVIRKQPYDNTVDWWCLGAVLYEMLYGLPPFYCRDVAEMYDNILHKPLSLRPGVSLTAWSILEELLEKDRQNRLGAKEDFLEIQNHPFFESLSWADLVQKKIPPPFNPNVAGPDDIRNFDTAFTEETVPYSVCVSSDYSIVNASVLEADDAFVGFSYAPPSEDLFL
T1 sequence (P48729 whole entry): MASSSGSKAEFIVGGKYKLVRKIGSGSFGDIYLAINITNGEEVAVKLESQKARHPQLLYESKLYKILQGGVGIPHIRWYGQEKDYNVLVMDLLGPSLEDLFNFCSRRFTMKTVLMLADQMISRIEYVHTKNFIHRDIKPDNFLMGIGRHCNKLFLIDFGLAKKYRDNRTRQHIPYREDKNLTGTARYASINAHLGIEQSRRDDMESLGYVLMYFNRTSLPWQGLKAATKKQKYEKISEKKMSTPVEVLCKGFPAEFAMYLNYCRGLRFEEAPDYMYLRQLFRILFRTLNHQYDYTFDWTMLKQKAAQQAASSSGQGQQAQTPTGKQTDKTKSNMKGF

CCN1CCN(Cc2ccc(NC(=O)c3ccc(C)c(C#Cc4cccnc4)c3)cc2C(F)(F)F)CC1 [XMD15-44]
remaining binding at 10 µM (KinomeScan kinase panel [1]): > 30% | remaining binding at 10 µM (KinomeScan kinase panel [2]): 6.2% | remaining binding at 10 µM (KinomeScan kinase panel [3]): 0.15%
